This note sets out measurements from patent US20260364184A1, “COMPOUND BASED ON OXOISOINDOLINYL-SUBSTITUTED TETRAHYDROPYRIMIDINE-DIONE AND USE THEREOF” (GLUETACS THERAPEUTICS (SHANGHAI) CO., LTD., priority 2023, published 2026).

One may read the inhibition as the drop in the measured response relative to a control, in per cent.

SMILES strings stand for the structures.

Test [1] deals with Human large cell immunoblastic lymphoma cell line SR. Put plainly: Inhibition of SR cell proliferation (CellTiter luminescent viability). Format: cell-based. The conditions noted are these: Table IA1, IRAK4 inhibitor-based, 96 hours, read-out: Inhibitory activity (IC50, nM) on tumor cell proliferation, SR. The procedure, abridged:
(§1)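 IC50 is fitted from luminescent viability (CellTiter-Meiluncell) curves. Nine-point, 5-fold dilution series (top stock 2000 μM) are added at 0.5 μL per 100 μL medium to cells plated the day before, with growth at 37 °C and 5% CO2.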

In test [2] the test system is Human gastric cancer cell line MGC803. Put plainly: Inhibition of MGC803 tumor cell proliferation (CellTiter luminescent viability). Format: cell-based. The conditions noted are these: Table IA1, IRAK4 inhibitor-based compounds; MGC803, 96 hours; read-out: Inhibitory activity (IC50, nM) on tumor cell proliferation, MGC803. The procedure, abridged:
as §1

For the next test, the system named is JEKO-1. The test is described as follows: Inhibition of JEKO-1 cell proliferation (CellTiter luminescent viability). Format: cell-based, human. The conditions noted are these: Table IA1, IRAK4 inhibitor-based; JEKO-1, 96 hours; read-out: Inhibitory activity (IC50, nM) on tumor cell proliferation, JEKO-1. Summed up: as §1
Test [3] deals with Human diffuse large B-cell lymphoma cell line (TMD8). The test is described as follows: Inhibition of TMD8 cell proliferation (CellTiter luminescent viability). Format: cell-based. The conditions noted are these: Homo sapiens, TMD8, 96 h, Table IF1, AR inhibitor-based; for inhibition at 0.01 µM: TMD8, 10 nM, read-out: Inhibition Rate at 10 nM (%); for inhibition at 0.5 µM: TMD8, 500 nM, read-out: Inhibition Rate at 500 nM (%).

For test [4], the system named is Human myeloid monocytic leukemia cell line (MV-4-11). Put plainly: Inhibition of MV-4-11 cell proliferation (CellTiter luminescent viability). Format: cell-based. The note with it: Homo sapiens, MV4-11, Table IA3, IRAK4 inhibitor-based, 96 hours; for inhibition at 0.01 µM: MV-4-11, 10 nM, read-out: Inhibition Rate at 10 nM (%); for inhibition at 0.5 µM: MV-4-11, 500 nM, read-out: Inhibition Rate at 500 nM (%). Summed up:
as §1

Test [5] relates to Human Acute T Lymphoblastic Leukemia Cells (Molt-4). Put plainly: Inhibition of Molt-4 cell proliferation (CellTiter luminescent viability). Format: cell-based. The note with it: Homo sapiens, MOLT-4, 96 h, Table IA2, IRAK4 inhibitor-based, 96 hours; for inhibition at 0.01 µM: Molt-4, 10 nM, read-out: Inhibition Rate at 10 nM (%); for inhibition at 0.5 µM: Molt-4, 500 nM, read-out: Inhibition Rate at 500 nM (%).

Test [6] deals with Human acute lymphocytic leukemia T lymphocytes cell line (CCRF-CEM). Put plainly: Inhibition of CCRF-CEM cell proliferation (CellTiter luminescent viability). Format: cell-based. The conditions noted are these: Homo sapiens, 96 h, Table IF2, AR inhibitor-based; for inhibition at 0.01 µM: 10 nM, read-out: Inhibition Rate at 10 nM (%); for inhibition at 0.5 µM: 500 nM, read-out: Inhibition Rate at 500 nM (%).

`O=C1CCN(N2Cc3cc(CN4CCC(n5cc(NC(=O)c6coc(-c7ccnc(NCC8CC8)c7)n6)c(C(F)F)n5)CC4)ccc3C2=O)C(=O)N1` [GT-04951, 2-(2-((cyclopropylmethyl)amino)pyridin-4-yl)-N-(3-(difluoromethyl)-1-(1-((2-(2,4-dioxotetrahydropyrimidin-1(2H)-yl)-1-oxoisoindolin-5-yl)methyl)piperidin-4-yl)-1H-pyrazol-4-yl) oxazole-4-carboxamide]: the IC50 lay within 500 to 1000 nM in test [1], 100 to 300 nM in test [2] and 100 to 300 nM in the test with JEKO-1.

On to `O=C1CCN(N2Cc3cc(CN4CCC(n5cc(NC(=O)c6cnn7ccc(N8C[C@H]9C[C@@H]8CO9)nc67)c(C(F)F)n5)CC4)ccc3C2=O)C(=O)N1` [GT-05028, 5-((1R,4R)-2-oxa-5-azabicyclo[2.2.1]heptan-5-yl)-N-(3-(difluoromethyl)-1-(1-((2-(2,4-dioxotetrahydropyrimidin-1(2H)-yl)-1-oxoisoindolin-5-yl)methyl)piperidin-4-yl)-1H-pyrazol-4-yl)pyrazolo[1,5-a]pyrimidine-3-carboxamide], for which the IC50 in test [1] fell in the range of 500 to 1000 nM; in test [2], 500 to 1000 nM; in the test with JEKO-1, 300 to 500 nM.

Take `N#Cc1ccc(O[C@H]2CC[C@H](NC(=O)c3ccc(N4CCC(CN5C[C@@H]6C[C@H]5CN6c5ccc6c(c5)C(=O)N(N5CCC(=O)NC5=O)C6=O)CC4)nn3)CC2)cc1Cl` [GT-05226, N-((1r,4r)-4-(3-chloro-4-cyanophenoxy)cyclohexyl)-6-(4-(((1S,4S)-5-(2-(2,4-dioxotetrahydropyrimidin-1(2H)-yl)-1,3-dioxoisoindolin-5-yl)-2,5-diazabicyclo[2.2.1]heptan-2-yl)methyl)piperidin-1-yl)pyridazine-3-carboxamide]: in test [3], the inhibition at 0.01 µM was 10 to 15% and the inhibition at 0.5 µM lay within 25 to 30%.

As to `O=C1CCN(N2C(=O)c3cccc(N4CCC(CN5CCC(n6cc(NC(=O)c7cnn8ccc(N9C[C@H]%10C[C@@H]9CO%10)nc78)c(C(F)F)n6)CC5)CC4)c3C2=O)C(=O)N1` [GT-05285, 5-((1R,4R)-2-oxa-5-azabicyclo[2.2.1]heptan-5-yl)-N-(3-(difluoromethyl)-1-(1-((1-(2-(2,4-dioxotetrahydropyrimidin-1(2H)-yl)-1,3-dioxoisoindolin-4-yl)piperidin-4-yl)methyl)piperidin-4-yl)-1H-pyrazol-4-yl)pyrazolo[1,5-a]pyrimidine-3-carboxamide], the inhibition at 0.01 µM in test [4] is 45 to 50%; in test [5], -5 to 0%. In addition, the inhibition at 0.5 µM in test [4] and in test [5] was 80 to 100% each time.

As to `O=C1CCN(N2Cc3cc(CN4CCC(n5cc(NC(=O)c6cnn7ccc(N8CCOCC8)nc67)c(C(F)F)n5)CC4)ccc3C2=O)C(=O)N1` [GT-05749], in test [4], the inhibition at 0.01 µM was 0 to 10% and the inhibition at 0.5 µM was 80 to 100%. In test [5], the inhibition at 0.01 µM is 7 to 10% and the inhibition at 0.5 µM was in the range of 60 to 80%.

As to `N#Cc1ccc(O[C@H]2CC[C@H](NC(=O)c3ccc(N4CCC(CN5CC6CCC5CN6c5ccc6c(c5)C(=O)N(N5CCC(=O)NC5=O)C6=O)CC4)nn3)CC2)cc1Cl` (stereo partly drawn) [GT-05832, N-((1r,4r)-4-(3-chloro-4-cyanophenoxy)cyclohexyl)-6-(4-((5-(2-(2,4-dioxotetrahydropyrimidin-1(2H)-yl)-1,3-dioxoisoindolin-5-yl)-2,5-diazabicyclo[2.2.2]octan-2-yl)methyl)piperidin-1-yl)pyridazine-3-carboxamide], in test [6], the inhibition at 0.01 µM is -5 to 0% and the inhibition at 0.5 µM fell in the range of 30 to 40%. For the same compound, in test [3], the inhibition at 0.01 µM is 10 to 15% and the inhibition at 0.5 µM fell in the range of 40 to 60%.

As to `CC1(C)[C@H](NC(=O)c2ccc(N3CCC(CN4CC5CCC4CN5c4ccc5c(c4)C(=O)N(N4CCC(=O)NC4=O)C5=O)CC3)nc2)C(C)(C)[C@H]1Oc1ccc(C#N)c(Cl)c1` (stereo partly drawn) [GT-05834, N-((1r,3r)-3-(3-chloro-4-cyanophenoxy)-2,2,4,4-tetramethylcyclobutyl)-6-(4-((5-(2-(2,4-dioxotetrahydropyrimidin-1(2H)-yl)-1,3-dioxoisoindolin-5-yl)-2,5-diazabicyclo[2.2.2]octan-2-yl)methyl)piperidin-1-yl)nicotinamide], in test [6], the inhibition at 0.01 µM was 10 to 15% and the inhibition at 0.5 µM lay in the range of 40 to 60%. Besides, in test [3], the inhibition at 0.01 µM fell in the range of 15 to 20% and the inhibition at 0.5 µM was 40 to 60%.
